Consider 1 compound from patent US11738095B2, “Cyanine-containing compounds for cancer imaging and treatment” (Emory University, priority 2007, dated 2023).

Like-named read-outs stand apart in the source and are kept apart here.

The procedure of data set [1]:
Mice were injected with 20 μg/Kg of IR783 and IR780 (which was 100× of the imaging dose which was 0.2 μg/Kg) and results were compared for a 28 day period. […] Zero grams means the mouse died. ICG is a FDA approved dye used for several diagnostic purposes. ICG is considered to be nontoxic. ICG is used here as a measure of the toxicity of the tested compounds.
Toxicity test of dye based on body weight gained during the treatment period from 0 to 14 days.

The conditions of data set [2]: FDA approved dye; cited from earlier work.

For `CC1(C)C(/C=C/C=C/C=C/C=C2\N(CCCCS(=O)(=O)[O-])c3ccc4ccccc4c3C2(C)C)=[N+](CCCCS(=O)(=O)[O-])c2ccc3ccccc3c21.[Na+]` [ICG, reference compound], the body weight in data set [1] (dose 1X (imaging dose 0.2 μg/Kg), 0 day) worked out at 20.43 g; in data set [1] (dose 1X, 1 day), 20.49 g; in data set [1] (dose 1X, 2 day), 20.51 g; in data set [1] (dose 1X, 3 day), 21.01 g; in data set [1] (dose 1X, 4 day), 21.43 g; in data set [1] (dose 1X, 5 day), 22.00 g. Moreover, the body weight is recorded as 22.34 g in data set [1] (dose 1X, 6 day); 22.96 g in data set [1] (dose 1X, 7 day); 23.87 g in data set [1] (dose 1X, 14 day); 25.00 g in data set [1] (dose 1X, 28 day). In addition, the “toxicity (general reputation)” value in data set [2] was “nontoxic”.
